Source: publication PMC10848157, “Assessing NH300094, a novel dopamine and serotonin receptor modulator with cognitive enhancement property for treating schizophrenia” (Frontiers in Pharmacology, 2024)

Biological target: D2L receptor (Homo sapiens, UniProt P14416)
Assay: D2L receptor functional assay (cAMP assay, antagonist)
Type: cell-based
Conditions: antagonist activity, CHO-K1/D2 cells, read-out: D2LR, IC50

Chain of D2L receptor (P14416 whole entry): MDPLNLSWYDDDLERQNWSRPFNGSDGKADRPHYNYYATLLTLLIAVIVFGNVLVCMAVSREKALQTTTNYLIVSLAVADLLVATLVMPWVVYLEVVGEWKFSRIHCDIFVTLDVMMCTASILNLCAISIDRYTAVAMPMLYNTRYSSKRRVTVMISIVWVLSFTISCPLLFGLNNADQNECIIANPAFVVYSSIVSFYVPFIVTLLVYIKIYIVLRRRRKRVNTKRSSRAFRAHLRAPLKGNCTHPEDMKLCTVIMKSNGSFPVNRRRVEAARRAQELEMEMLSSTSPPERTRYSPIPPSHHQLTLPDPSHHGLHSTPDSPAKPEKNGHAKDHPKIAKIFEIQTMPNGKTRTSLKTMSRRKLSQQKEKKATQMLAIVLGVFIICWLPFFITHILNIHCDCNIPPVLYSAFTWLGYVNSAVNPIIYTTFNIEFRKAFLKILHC

Compound: O=C1CCc2cc(OCCCN3CCC(c4noc5cc(F)ccc45)CC3)cc3c2N1CC3 [NH300094, 8-(3-(4-(6-fluorobenzo [d]isoxazol-3-yl)piperidin-1-yl)propoxy)-1,2,5,6-tetrahydro-4H-pyrrolo [3,2,1-ij] quinolin-4-one]
- IC50: 1.04 ± 0.59 nM
